Data from US8304382B2, “Anti-inflammatory and anti-allergic cyclic peptides” (Cristalia Productos Quimicos Farmaceuticos Ltda., priority 2006, dated 2012).

Test system: leukocyte rolling in post-capillary venules of the cremaster muscle
Settings: topical, LPS-induced rolling; FIG. 2 and 3

Ile1-Pro2-Arg3-Cys4-Arg5-Lys6-Met7-Pro8-Gly9-Val10-Ala11-Met12-Cys13 [SEQ ID NO: 10]
inhibition of leukocyte rolling (in words): not efficient
